Measurements reported in US5244891A, “Injectable compositions of cefepime dihydrochloride hydrate” (priority 1992, dated 1993).
Entries after “also recorded” stand apart in the source; their conditions may differ. Counter-ions that a name gives are not always drawn. Like-named read-outs stand apart in the source and are kept apart here. One block for each compound: values may come before it.

Key:
[1] = Elevated temperature storage stability in dry form (potency loss or gain by HPLC); type: physicochemical; conditions: for degraded at 24 h: 1 day
Experimental: Elevated temperature stabilities were determined by storing the preparations in dry containers at temperatures and for time periods as denoted below and potency losses or gains were determined by HPLC. A % potency gain is indicated by a plus sign in front of a figure. A less than 10% potency loss over a 2 to 4 week period at 45-56 deg. C. is usually indicative of less than 10% potency loss over a 2-3 year period at room temperature.

Solubility in water = type: physicochemical; conditions: for solubility in water (in words): for typical injectable compositions
[2] = dry powder, 45 deg. C. and above, even one week; 10080 min; cited from earlier work
various organisms = conditions: Aburaki et al. U.S. Pat. No. 4,406,899; listed as zwitterion form; cited from earlier work
[3] = Formation of insoluble particles on storage; type: physicochemical; conditions: storage at elevated temperatures
From the text: The dihydrochloride dihydrate described in Example XIII can be easily dried to give the same dihydrochloride monohydrate described in Examples XI and XII. […] Accordingly, the monohydrate carrying up to about 1% by weight of adventitious water is the preferred form (total water content ca. 2.5-4.1%).

[4] = Weight loss on drying of the hydrate; type: physicochemical; conditions: 57° C., 0.001 mm Hg over P2 O5, 5 days; or 45° C., 10 mm Hg, 2 days
From the text: The foregoing procedures of Examples XI and XII routinely produce monohydrate having a water content in the range of 2.46% to 3.70% with an average value of 3.31%. The value calculated from the stoichiometric formula is 3.15%.

[5] = 45 Deg. C., 1 week, dry container, + = potency gain, 10080 min
[6] = 45 Deg. C., 4 weeks, dry container, + = potency gain, 40320 min
[7] = 56 Deg. C., 1 week, dry container, + = potency gain, 10080 min
[8] = 56 Deg. C., 2 weeks, dry container, + = potency gain, 20160 min
[9] = dry solid, 45 Deg. C., 2 weeks, dry container, + = potency gain, read-out: PERCENT LOSS (potency)
[10] = dry solid, 100 Deg. C., dry container, + = potency gain, read-out: PERCENT LOSS (potency)
[11] = 45 Deg. C., 2 weeks, dry container, + = potency gain, 20160 min
[12] = 45 Deg. C., 6 weeks, dry container, + = potency gain, 60480 min
[13] = listed as di-nitric acid addition salt
[14] = listed as sulfuric acid addition salt, sulfate salt

Structure (SMILES): CO/N=C(\C(=O)NC1C(=O)N2C(C(=O)[O-])=C(C[N+]3(C)CCCC3)CSC12)c1csc(N)n1 (stereo not drawn) [(H3 PO4)2 Salt, crystalline diphosphate salt of 7-[α-(2-aminothiazol-4-yl)-α-(Z)-methoxyiminoacetamido]-3-[(1-methyl-1-pyrrolidinio)methyl]-3-cephem-4-carboxylate]
PERCENT LOSS (potency) [1, 5]: 0% | PERCENT LOSS (potency) [1, 6]: 1.0% | PERCENT LOSS (potency) [1, 7]: 2.7% | PERCENT LOSS (potency) [1, 8]: 5.0% | degraded at 336 h [1, 9]: 3% | solubility in water (Solubility in water; listed as di-orthophosphoric acid addition salt): greater than 200 mg/ml

Structure (SMILES): CO/N=C(\C(=O)NC1C(=O)N2C(C(=O)[O-])=C(C[N+]3(C)CCCC3)CSC12)c1csc(N)n1 (centres unmarked) [(HCl)2 Salt]
PERCENT LOSS (potency) [1, 5]: 0% | PERCENT LOSS (potency) [1, 6]: 7.4% | PERCENT LOSS (potency) [1, 7]: 0% | degraded at 672 h ([1]; dry solid, 56° C., 4 weeks, read-out: potency loss on storage): 7.2% | degraded at 24 h [1, 10]: 12.4% | solubility in water (Solubility in water; listed as di-hydrochloric acid addition salt): greater than 200 mg/ml

Structure (SMILES): CO/N=C(\C(=O)NC1C(=O)N2C(C(=O)[O-])=C(C[N+]3(C)CCCC3)CSC12)c1csc(N)n1 (centres unmarked) [(HNO3)2 Salt]
PERCENT LOSS (potency) [1, 5]: 8.8% | PERCENT LOSS (potency) [1, 11]: 3.4% | PERCENT LOSS (potency) [1, 6]: 0.68% | PERCENT LOSS (potency) [1, 12]: 10.3% | PERCENT LOSS (potency) [1, 7]: 3.7% | PERCENT LOSS (potency) [1, 8]: 2.4% | solubility in water (in words) (Solubility in water; [13]): reduced solubilities which are insufficient for typical injectable compositions; also recorded: not sufficiently soluble to form compositions of normal concentration for administration | solubility in water (Solubility in water; [13]): about 60 mg/ml

Structure (SMILES): CO/N=C(\C(=O)NC1C(=O)N2C(C(=O)[O-])=C(C[N+]3(C)CCCC3)CS[C@H]12)c1csc(N)n1 (stereo partly drawn) [H2 SO4 Salt, 7-[α-(2-aminothiazol-4-yl)-α-(Z)-methoxyiminoacetamido]-3-[(1-methyl-1-pyrrolidinio)methyl]-3-cephem-4-carboxylate sulfate salt]
PERCENT LOSS (potency) ([1]; 45 Deg. C., 1 week, dry container, + = potency gain, 10080 min, sulfate salt, 10080 min): 2.4 to +5% | PERCENT LOSS (potency) ([1]; 45 Deg. C., 2 weeks, dry container, + = potency gain, 20160 min, sulfate salt, 20160 min): 3% | PERCENT LOSS (potency) ([1]; 45 Deg. C., 4 weeks, dry container, + = potency gain, 40320 min, sulfate salt, 40320 min): +5% | PERCENT LOSS (potency) ([1]; 45 Deg. C., 6 weeks, dry container, + = potency gain, 60480 min, sulfate salt, 60480 min): 1.4% | PERCENT LOSS (potency) ([1]; 56 Deg. C., 1 week, dry container, + = potency gain, 10080 min, sulfate salt, 10080 min): 5 to +6% | PERCENT LOSS (potency) ([1]; 56 Deg. C., 2 weeks, dry container, + = potency gain, 20160 min, sulfate salt, 20160 min): +3% | PERCENT LOSS (potency) ([1]; 56 Deg. C., 4 weeks, dry container, + = potency gain, 40320 min, sulfate salt, 40320 min): 0 to +6% | degraded at 730 h ([1]; dry solid, 45-56 deg. C., one month): < 10% | solubility compared to the zwitterion form (Solubility in water): limited solubility | solubility in water (in words) (Solubility in water; [14]): reduced solubilities which are insufficient for typical injectable compositions; also recorded: not sufficiently soluble to form compositions of normal concentration for administration | solubility in water (Solubility in water; listed as crystalline sulfuric acid addition salt, sulfate salt): 25 mg/mL | solubility in water (Solubility in water; [14]): about 25 mg/ml

Structure (SMILES): CO/N=C(\C(=O)NC1C(=O)N2C(C(=O)[O-])=C(C[N+]3(C)CCCC3)CS[C@H]12)c1csc(N)n1 (stereo partly drawn) [Zwitterion, 7-[α-(2-aminothiazol-4-yl)-α-(Z)-methoxyiminoacetamido]-3-[(1-methyl-1-pyrrolidinio)methyl]-3-cephem-4-carboxylate, reference compound]
degraded at 168 h ([1]; dry solid, 45 Deg. C., 1 week, dry container, + = potency gain, read-out: PERCENT LOSS (potency)): 37% | degraded at 336 h [1, 9]: 51% | degraded at 672 h ([1]; dry solid, 45 Deg. C., 4 weeks, dry container, + = potency gain, read-out: PERCENT LOSS (potency)): 71% | degraded at 168 h ([1]; dry solid, 56 Deg. C., 1 week, dry container, + = potency gain, read-out: PERCENT LOSS (potency)): 57% | degraded at 24 h [1, 10]: 100% | loss of activity on storage [2]: ≥ 30% | spectrum of activity (various organisms): broader spectrum activity than ceftazidime and cefotaxime; also recorded: broad spectrum utility against various organisms

Structure (SMILES): CO/N=C(\C(=O)NC1C(=O)N2C(C(=O)[O-])=C(C[N+]3(C)CCCC3)CSC12)c1csc(N)n1 (stereo not drawn) [dihydrate, dihydrate of 7-[α-(2-aminothiazol-4-yl)-α-(Z)-methoxyiminoacetamido]-3-[(1-methyl-1-pyrrolidinio)methyl]-3-cephem-4-carboxylate dihydrochloride]
formation of insoluble particles [3]: formation of trace amounts of insoluble particles was observed

The remaining lines, values ahead:

PERCENT LOSS (potency) [1, 5]: 4.8% | PERCENT LOSS (potency) [1, 11]: 2.3% | PERCENT LOSS (potency) [1, 6]: 6.0% | PERCENT LOSS (potency) [1, 12]: 6.4% | PERCENT LOSS (potency) [1, 7]: 6.4% | solubility in water (Solubility in water; listed as mono-hydrochloric acid addition salt): greater than 200 mg/ml
Structure (SMILES): CO/N=C(\C(=O)NC1C(=O)N2C(C(=O)[O-])=C(C[N+]3(C)CCCC3)CSC12)c1csc(N)n1 (centres unmarked) [HCl Salt]

Stability, % Loss ([1]; 1 month, 37° C., 43200 min): 2.5% | Stability, % Loss ([1]; 1 week, 45° C., 10080 min): 0% | Stability, % Loss ([1]; 4 weeks, 56° C., 40320 min): 0% | Stability, % Loss ([1]; 3 days, 70° C.): 0% | degraded at 168 h ([1]; dry solid, 1 week, 56° C., read-out: Stability, % Loss): 1% | degraded at 336 h ([1]; dry solid, 2 weeks, 45° C., read-out: Stability, % Loss): 1.4% | degraded at 336 h ([1]; dry solid, 2 weeks, 56° C., read-out: Stability, % Loss): 1.4% | degraded at 672 h ([1]; dry solid, 4 weeks, 45° C., read-out: Stability, % Loss): 0.7% | degraded at 1344 h ([1]; dry solid, 8 weeks, 45° C.): 1.6% | degraded at 24 h ([1]; dry solid, 100° C., read-out: Stability, % Loss): 10.9% | degraded at 168 h ([1]; dry solid, 7 days, 70° C., read-out: Stability, % Loss): 1.9% | solubility in water (Solubility in water; listed as sesqui-orthophosphoric acid addition salt): greater than 200 mg/ml
Structure (SMILES): CO/N=C(\C(=O)NC1C(=O)N2C(C(=O)[O-])=C(C[N+]3(C)CCCC3)CSC12)c1csc(N)n1 (stereo not drawn) [Sesquiphosphate Salt, crystalline sesquiphosphate salt of 7-[α-(2-aminothiazol-4-yl)-α-(Z)-methoxyiminoacetamido]-3-[(1-methyl-1-pyrrolidinio)methyl]-3-cephem-4-carboxylate]

storage stability at elevated temperatures (chemical and biological potency) [1]: similar | degraded at 504 h ([1]; dry solid, 56° C., 3 weeks): 0.6% | remaining at 504 h ([1]; dry solid, 56° C., 3 weeks, total water content ca. 2.5-4.1%, read-out: retention of potency): ≥ 96% | loss in weight on drying [4]: no loss in weight
Structure (SMILES): CO/N=C(\C(=O)NC1C(=O)N2C(C(=O)[O-])=C(C[N+]3(C)CCCC3)CSC12)c1csc(N)n1 (stereo not drawn) [monohydrate, crystalline dihydrochloride monohydrate of 7-[α-(2-aminothiazol-4-yl)-α-(Z)-methoxyiminoacetamido]-3-[(1-methyl-1-pyrrolidinio)methyl]-3-cephem-4-carboxylate]
